Source: US20250382337A1 (UNIVERSITY OF MIAMI, priority 2022, published 2025)

Tested on: SCI pain
Settings: in vivo

NCC1(CC(=O)O)CCCCC1 [gabapentin]
place preference in GFP (control AAV) SCI animals: induced place preference
